Data published in US11208400B2, “Substituted 6-(1H-pyrazol-1-yl)pyrimidin-4-amine derivatives and uses thereof” (Bayer Aktiengesellschaft, priority 2016, dated 2021).

These compounds were tested against T1, human Npt2a (Homo sapiens, UniProt Q06495) (assay: Npt2a activity cell based assay, membrane potential dye, CHO T-REx hNpt2a cells). Conditions: doxycycline-induced, depolarization by sodium phosphate influx, average or median values if tested more than once.
T1 construct: expressed in transfected cells
T1 sequence (Q06495 1-639): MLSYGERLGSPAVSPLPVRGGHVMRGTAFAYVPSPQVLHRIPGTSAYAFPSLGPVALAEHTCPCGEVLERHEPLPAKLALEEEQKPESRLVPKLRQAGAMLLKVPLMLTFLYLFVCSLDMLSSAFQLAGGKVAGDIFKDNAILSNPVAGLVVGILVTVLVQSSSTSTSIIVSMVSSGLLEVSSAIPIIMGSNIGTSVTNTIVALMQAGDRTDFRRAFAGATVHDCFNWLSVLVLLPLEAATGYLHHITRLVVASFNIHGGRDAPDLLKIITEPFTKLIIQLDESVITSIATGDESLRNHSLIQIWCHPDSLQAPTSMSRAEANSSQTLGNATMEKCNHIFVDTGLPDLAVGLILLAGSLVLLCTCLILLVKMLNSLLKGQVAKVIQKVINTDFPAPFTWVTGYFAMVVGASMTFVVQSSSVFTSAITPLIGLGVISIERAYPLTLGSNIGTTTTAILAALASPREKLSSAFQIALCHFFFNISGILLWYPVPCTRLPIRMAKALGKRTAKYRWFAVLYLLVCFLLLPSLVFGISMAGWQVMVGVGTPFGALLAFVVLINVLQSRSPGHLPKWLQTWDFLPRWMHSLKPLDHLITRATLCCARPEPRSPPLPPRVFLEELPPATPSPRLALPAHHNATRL
Outline: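 Doxycycline-induced (0.5 μg/mL, 24 h) CHO T-REx cells were loaded with membrane potential dye in sodium-free NHE buffer (pH 7.4) and exposed to compound (50 μM–1 nM, 5 min, room temperature).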

SMILES	IC50
Cc1c(-c2ccc(F)cc2)nn(CC2CC2)c1Nc1cc(-n2cc(C(F)(F)F)cn2)ncn1 [Example 426, N-[1-(cyclopropylmethyl)-3-(4-fluorophenyl)-4-methyl-1H-pyrazol-5-yl]-6-[4-(trifluoromethyl)-1H-pyrazol-1-yl]pyrimidin-4-amine]	59 nM
COc1c(C)nn(-c2cc(Nc3c(C)c(-c4ccc(C(F)F)nc4)nn3CC3CC3)ncn2)c1C [Example 510, N-{1-(cyclopropylmethyl)-3-[6-(difluoromethyl)pyridin-3-yl]-4-methyl-1H-pyrazol-5-yl}-6-(4-methoxy-3,5-dimethyl-1H-pyrazol-1-yl)pyrimidin-4-amine]	190 nM
Cc1nn(-c2cc(Nc3nn(C)c(-c4ccc(F)cn4)c3C)ncn2)c(C)c1Cl [Example 479, 6-(4-chloro-3,5-dimethyl-1H-pyrazol-1-yl)-N-[5-(5-fluoropyridin-2-yl)-1,4-dimethyl-1H-pyrazol-3-yl]pyrimidin-4-amine]	18 nM
CCOC(=O)c1c(C)nn(-c2cc(Nc3nn(C)c(-c4ccc(F)cc4)c3C)ncn2)c1C [Example 61, ethyl 1-(6-{[5-(4-fluorophenyl)-1,4-dimethyl-1H-pyrazol-3-yl]amino}pyrimidin-4-yl)-3,5-dimethyl-1H-pyrazole-4-carboxylate]	4.4 nM
COc1c(-c2ccc(C#N)cc2)nn(C)c1Nc1cc(-n2nc(C)c(C(O)C(F)(F)F)c2C)ncn1 (racemic) [Example 425, (±)-4-{5-[(6-{3,5-dimethyl-4-[2,2,2-trifluoro-1-hydroxyethyl]-1H-pyrazol-1-yl}pyrimidin-4-yl)amino]-4-methoxy-1-methyl-1H-pyrazol-3-yl}benzonitrile]	415 nM
Cc1c(-c2ccc(F)cc2)nn(CC2CC2)c1Nc1cc(-n2nc3c(c2C)C(C)(O)CC3)ncn1 (racemic) [Example 404, (±)-2-(6-{[1-(cyclopropylmethyl)-3-(4-fluorophenyl)-4-methyl-1H-pyrazol-5-yl]amino}pyrimidin-4-yl)-3,4-dimethyl-2,4,5,6-tetrahydrocyclopenta[c]pyrazol-4-ol]	13 nM
COCCn1nc(-c2ccc(C#N)cc2)c(C)c1Nc1cc(-n2nc(C)cc2C)ncn1 [Example 555, 4-[5-{[6-(3,5-dimethyl-1H-pyrazol-1-yl)pyrimidin-4-yl]amino}-1-(2-methoxyethyl)-4-methyl-1H-pyrazol-3-yl]benzonitrile]	1.6 nM
CCc1c(Nc2cc(-n3nc(C)c(C(C)(C)O)c3C)ncn2)n[nH]c1-c1ccc(F)cc1 [Example 181, 2-[1-(6-{[4-ethyl-5-(4-fluorophenyl)-1H-pyrazol-3-yl]amino}pyrimidin-4-yl)-3,5-dimethyl-1H-pyrazol-4-yl]propan-2-ol]	1500 nM
Cc1cc(C)n(-c2cc(Nc3nn(CC(F)F)c(-c4ccc(F)cc4)c3Cl)ncn2)n1 [Example 132, N-[4-chloro-1-(2,2-difluoroethyl)-5-(4-fluorophenyl)-1H-pyrazol-3-yl]-6-(3,5-dimethyl-1H-pyrazol-1-yl)pyrimidin-4-amine]	39 nM
CCOC(=O)c1c(C)nn(-c2cc(Nc3c(CC)c(-c4ccc(C#N)cc4)nn3CC3CC3)ncn2)c1C [Example 156, ethyl 1-(6-{[3-(4-cyanophenyl)-1-(cyclopropylmethyl)-4-ethyl-1H-pyrazol-5-yl]amino}pyrimidin-4-yl)-3,5-dimethyl-1H-pyrazole-4-carboxylate]	2 nM
COc1c(-c2ccc(F)cc2)nn(CC2CC2)c1Nc1cc(-n2nc(C)c(C(C)=O)c2C)ncn1 [Example 317, 1-[1-(6-{[1-(cyclopropylmethyl)-3-(4-fluorophenyl)-4-methoxy-1H-pyrazol-5-yl]amino}pyrimidin-4-yl)-3,5-dimethyl-1H-pyrazol-4-yl]ethanone]	450 nM
CCOC(C)c1c(C)nn(-c2cc(Nc3c(C)c(-c4ccc(C#N)cc4)nn3CC3CC3)ncn2)c1C (racemic) [Example 342, (±)-4-{1-(cyclopropylmethyl)-5-[(6-{4-[1-ethoxyethyl]-3,5-dimethyl-1H-pyrazol-1-yl}pyrimidin-4-yl)amino]-4-methyl-1H-pyrazol-3-yl}benzonitrile]	2 nM
COc1c(-c2ccc(C#N)cc2)nn(CC2CC2)c1Nc1cc(-n2nc(C)c(C(C)O)c2C)ncn1 (racemic) [Example 331, (±)-4-{1-(cyclopropylmethyl)-5-[(6-{4-[(1S)-1-hydroxyethyl]-3,5-dimethyl-1H-pyrazol-1-yl}pyrimidin-4-yl)amino]-4-methoxy-1H-pyrazol-3-yl}benzonitrile]	2800 nM
CCc1c(Nc2cc(-n3nc(C)c(C(=O)N4CCC(C(F)F)C4)c3C)ncn2)nn(C)c1-c1ccc(F)cc1 (stereo not drawn) [Example 128, [3-(difluoromethyl)pyrrolidin-1-yl][1-(6-{[4-ethyl-5-(4-fluorophenyl)-1-methyl-1H-pyrazol-3-yl]amino}pyrimidin-4-yl)-3,5-dimethyl-1H-pyrazol-4-yl]methanone]	1300 nM
CCOC(=O)c1c(C)nn(-c2cc(Nc3c(C)c(-c4ccc(OC(F)(F)F)cc4)nn3C)ncn2)c1C [Example 361, ethyl 1-[6-({1,4-dimethyl-3-[4-(trifluoromethoxy)phenyl]-1H-pyrazol-5-yl}amino)pyrimidin-4-yl]-3,5-dimethyl-1H-pyrazole-4-carboxylate]	31 nM
Cc1cc(C(F)F)n(-c2cc(Nc3nn(C)c(-c4ccc(C(F)(F)F)nc4)c3C)ncn2)n1 [Example 552, 6-[5-(difluoromethyl)-3-methyl-1H-pyrazol-1-yl]-N-{1,4-dimethyl-5-[6-(trifluoromethyl)pyridin-3-yl]-1H-pyrazol-3-yl}pyrimidin-4-amine]	15 nM
Cc1cc(C)n(-c2cc(Nc3c(C)c(-c4ccc(OC(F)F)cc4)nn3CC3CC3)ncn2)n1 [Example 476, N-{1-(cyclopropylmethyl)-3-[4-(difluoromethoxy)phenyl]-4-methyl-1H-pyrazol-5-yl}-6-(3,5-dimethyl-1H-pyrazol-1-yl)pyrimidin-4-amine]	29 nM
Cc1nn(-c2cc(Nc3c(C)c(-c4ccc(F)cn4)nn3CC3CC3)ncn2)c(C)c1C(C)(C)O [Example 458, 2-[1-(6-{[1-(cyclopropylmethyl)-3-(5-fluoropyridin-2-yl)-4-methyl-1H-pyrazol-5-yl]amino}pyrimidin-4-yl)-3,5-dimethyl-1H-pyrazol-4-yl]propan-2-ol]	1550 nM
Cc1cc(C)n(-c2cc(Nc3c(C)c(-c4ccc(C#N)cc4)nn3CC(F)F)ncn2)n1 [Example 248, 4-[1-(2,2-difluoroethyl)-5-{[6-(3,5-dimethyl-1H-pyrazol-1-yl)pyrimidin-4-yl]amino}-4-methyl-1H-pyrazol-3-yl]benzonitrile]	182 nM
Cc1ccn(-c2cc(Nc3c(C)c(-c4ccc(C#N)cc4)nn3CC3CC3)ncn2)n1 [Example 243, 4-[1-(cyclopropylmethyl)-4-methyl-5-{[6-(3-methyl-1H-pyrazol-1-yl)pyrimidin-4-yl]amino}-1H-pyrazol-3-yl]benzonitrile]	28 nM
Cc1nn(-c2cc(Nc3nn(CC4CC4)c(-c4ccc(F)cc4)c3Cl)ncn2)c(C(F)F)c1Cl [Example 184, N-[4-chloro-1-(cyclopropylmethyl)-5-(4-fluorophenyl)-1H-pyrazol-3-yl]-6-[4-chloro-5-(difluoromethyl)-3-methyl-1H-pyrazol-1-yl]pyrimidin-4-amine]	1200 nM
CCc1c(-c2ccc(F)cc2)nn(CC(F)F)c1Nc1cc(-n2nc(C)cc2C)ncn1 [Example 162, N-[1-(2,2-difluoroethyl)-4-ethyl-3-(4-fluorophenyl)-1H-pyrazol-5-yl]-6-(3,5-dimethyl-1H-pyrazol-1-yl)pyrimidin-4-amine]	97 nM
CCc1c(Nc2cc(-n3nc(C)cc3C(F)F)ncn2)nn(C)c1-c1ccc(F)cc1 [Example 64, 6-[5-(difluoromethyl)-3-methyl-1H-pyrazol-1-yl]-N-[4-ethyl-5-(4-fluorophenyl)-1-methyl-1H-pyrazol-3-yl]pyrimidin-4-amine]	6.25 nM
CCc1c(-c2ccc(F)cc2)nn(C)c1Nc1cc(-n2nc(C)cc2C(C)(C)O)ncn1 [Example 264, 2-[1-(6-{[4-ethyl-3-(4-fluorophenyl)-1-methyl-1H-pyrazol-5-yl]amino}pyrimidin-4-yl)-3-methyl-1H-pyrazol-5-yl]propan-2-ol]	500 nM
CCc1c(Nc2cc(-n3ccc(C)n3)ncn2)nn(C)c1-c1ccc(F)cc1 [Example 242, N-[4-ethyl-5-(4-fluorophenyl)-1-methyl-1H-pyrazol-3-yl]-6-(3-methyl-1H-pyrazol-1-yl)pyrimidin-4-amine]	21 nM
Cc1nn(-c2cc(Nc3nn(C)c(-c4ccc(F)cc4)c3Cl)ncn2)c2ccccc12 [Example 110, N-[4-chloro-5-(4-fluorophenyl)-1-methyl-1H-pyrazol-3-yl]-6-(3-methyl-1H-indazol-1-yl)pyrimidin-4-amine]	22 nM
Cc1nn(-c2cc(Nc3c(C)c(-c4ccc(F)cc4)nn3CC3CC3)ncn2)c(C)c1CN1CC(F)(F)C1 [Example 390, N-[1-(cyclopropylmethyl)-3-(4-fluorophenyl)-4-methyl-1H-pyrazol-5-yl]-6-{4-[(3,3-difluoroazetidin-1-yl)methyl]-3,5-dimethyl-1H-pyrazol-1-yl}pyrimidin-4-amine]	25 nM
